# Data reported in patent US20110008465A1, “SESQUITERPENE FORMULATIONS, KITS AND METHODS OF USE THEREOF” (priority 2007, published 2011).
# Marks after values point to notes of the source that are not given here.
# Assays:
# [1] = system: MEL-2 (human melanoma); experiment: Chou and Talalay combination assay with beta-caryophyllene; assay type: cell-based; conditions: anticancer drug in combination with beta-caryophyllene; Chou and Talalay CI; 48 h
# Experimental: (§1) Each solution was prepared fresh and use within 1 hour after preparation.
# (§2) Cells were then harvested using trypsine-EDTA. Cells were counted using a hemocytometer and resuspended in DMEM+10% FBS medium.
# (§3) Proliferation assay: Increasing concentrations of the anticancer agents and/or beta-caryophyllene were added to 96-well plate (100 μL per well). The final concentration of solvent in the culture medium was maintained below 0.5% (volume/volume) to avoid solvent toxicity.
# (§4) The cells were incubated for 48 h at 37° C. and 5% CO2. Cytotoxicity was assessed using the resazurin reduction test (O'Brien et al., 2000). Fluorescence was measured on an automated 96-well Fluoroskan Ascent FI™ plate reader (Labsystems) using excitation and emission wavelengths of 530 nm and 590 nm, respectively. Resazurin was then removed.
# (§5) Microplates were frozen at −20° C. overnight. Plates were thawed, a volume of 100 μl of 0.01% SDS in water was added to the wells, the plates were shaken at room temperature for 3 hours and then frozen once more at −20° C. overnight. […] Plates were shaken in the dark (at room temperature) for at least 2 hours, and fluorescence was measured on an automated 96-well Fluoroskan Ascent FI™ plate reader (Labsystems) using excitation and emission wavelengths of 360 nm and 460 nm, respectively.
# (§6) Results were analyzed using the Chou and Talalay method (9) and may be interpreted as follow: Cl>1 represents an antagonist effect of beta-caryophyllene with the corresponding anticancer agent; Cl=1 represents an additive effect of beta-caryophyllene with the corresponding anticancer agent; Cl<1 represents a potentiating effect of beta-caryophyllene with the corresponding anticancer agent.
# [2] = system: GL-261 (murine glioblastoma); experiment: as above; assay type: cell-based; conditions: anticancer drug in combination with beta-caryophyllene; Chou and Talalay CI; 48 h
# Experimental: as §1, §2, §3, §4, §5, §6
# [3] = system: U-251 (human glioblastoma); experiment: as above; assay type: cell-based; conditions: anticancer drug in combination with beta-caryophyllene; Chou and Talalay CI; 48 h
# Experimental: as §1, §2, §3, §4, §5, §6
# [4] = system: B16 (murine melanoma); experiment: as above; assay type: cell-based; conditions: anticancer drug in combination with beta-caryophyllene; Chou and Talalay CI; 48 h
# Experimental: as §1, §2, §3, §4, §5, §6
# [5] = system: Panc 05.04 (pancreas cancer); experiment: as above; assay type: cell-based, Human; conditions: in combination with beta-caryophyllene in ethanol (40-150 mM), 48 h
# Experimental: Agent: […] Each solution was prepared fresh and use within 1 hour after preparation. 5 μL of each test article were added to 1 mL of culture medium for a final concentration of 0.5% of solvent and this concentration have no toxic effect on cells. Cells: The Panc 05.04 cell line was used. Cells were harvested using trypsine-EDTA. […] Cells were plated in 96-well microplates (BD Falcon) at a density of 7.5×10^3 cells per well for Chou and Talalay assay in 100 μL of culture medium and were allowed to adhere for 24 hours before treatment. Proliferation assay: Increasing concentrations of the anticancer agents and/or beta-caryophyllene were added to 96-well plate (100 μL per well). The final concentration of solvent in the culture medium was maintained below 0.5% (volume/volume) to avoid solvent toxicity. […] The cells were incubated for 48 h at 37° C. and 5% CO2. Cytotoxicity was assessed using the resazurin reduction test (8). […] Resazurin was then removed. Data analysis: Results were analyzed using the Chou and Talalay method (9) and may be interpreted as follow: […]
# [6] = system: Lewis lung carcinoma; experiment: In vivo potentiating effect of Formulation A on paclitaxel against Lewis lung cancer-bearing mice; conditions: for CTW (estimated weight) / T/C (estimated weight) / T/C (real weight) / TGI (estimated weight) / TGI (real weight) / Tumor weight (real weight): i.v. day 1 to 4, day 18
# Experimental: (§7) Cells: The Lewis lung carcinoma cell line was used (#CRL-1642, lot #4372266, ATCC). […] Cells were then harvested with up and down only. Cells were counted using a hemacytometer and resuspended in DMEM medium without SVF.
# Mice: 6-weeks old C57BL/6 male mice were used Charles Rivers Inc., St-Constant, QC). […] The mice of each group (n=10) were treated with a volume of 100 μL containing saline, Formulation A (see Example 5), paclitaxel or combination of the Formulation A with paclitaxel.
# (§8) Inoculation: 100 μL of a solution containing 1×10^7 cells/mL were inoculated subcutaneously in each mouse.
# Treatment: Lewis lung carcinoma cells were inoculated subcutaneous on C57BL/6 mice on day 0. The potentiating effect of the Formulation A combined with paclitaxel was evaluated against Lewis lung carcinoma-bearing mice (C57BL/6). The mice of each group (n=10) were treated with a volume of 100 μL containing saline, Formulation A, paclitaxel or a combination of Formulation A with paclitaxel in doses presented in Table 10 below: The treatments were administered intravenous on day 1 to 4. The length and the width of tumor were measured with calliper on day 8 to day 18. In the end of the experiment (day 18), the tumors were extracted and weighed.
# Values of p<0.05 were considered statistically significant.
# (b) Tumor weight (TW): The TW of each tumor was measured on day 18 after the sacrifice of each mouse. TW values were averaged within each group. […] Values of p<0.05 were considered statistically significant.
# [7] = system: DLD-1 (colon cancer); experiment: Chou and Talalay combination assay with beta-caryophyllene; assay type: cell-based, human; conditions: anticancer drug in combination with beta-caryophyllene; Chou and Talalay CI; 48 h
# Experimental: as §1, §2, §3, §4, §5, §6
# [8] = system: A-549 (lung cancer); experiment: as above; assay type: cell-based, human; conditions: anticancer drug in combination with beta-caryophyllene; Chou and Talalay CI; 48 h
# Experimental: as §1, §2, §3, §4, §5, §6
# [9] = system: MCF-7 (breast cancer); experiment: as above; assay type: cell-based, human; conditions: anticancer drug in combination with beta-caryophyllene; Chou and Talalay CI; 48 h
# Experimental: as §1, §2, §3, §4, §5, §6
# [10] = system: MDA-MB-231 (breast cancer); experiment: as above; assay type: cell-based, human; conditions: anticancer drug in combination with beta-caryophyllene; Chou and Talalay CI; 48 h
# Experimental: as §1, §2, §3, §4, §5, §6
# [11] = system: PA-1 (ovary cancer); experiment: as above; assay type: cell-based, human; conditions: anticancer drug in combination with beta-caryophyllene; Chou and Talalay CI; 48 h
# Experimental: as §1, §2, §3, §4, §5, §6
# [12] = system: Lewis lung carcinoma; experiment: In vivo potentiating effect of Formulation A on Taxotere against Lewis lung cancer-bearing mice; conditions: i.v. days 1-4, day 18
# Experimental: as §7
# Mice: 6-weeks old C57BL/6 male mice were used (Charles Rivers Inc., St-Constant, QC).
# as §8
# The mice of each group (n=10) were treated with a volume of 100 μL containing saline, Formulation A of Example 5 above (hereinafter referred to as Formulation A), Taxotere™ or a combination of Formulation A with Taxotere™ in doses presented in Table 7 below: […]
# Values of p<0.05 were considered statistically significant. The length and the width of tumor were measured with calliper on day 10 to day 18.
# [13] = Toxicity of Formulation A and/or Taxotere treatments (body weight) on Lewis lung cancer-bearing mice; conditions: for Loss of weight > 20% (n = 10): day 1 to day 8
# Experimental: The toxicity of the treatments described in Table 7 above was determined using the body weight of mice.
smiles,measurement,setting,value
"CC(=O)O[C@H]1C(=O)[C@@]2(C)[C@H]([C@H](OC(=O)c3ccccc3)[C@]3(O)C[C@H](OC(=O)[C@H](O)[C@@H](NC(=O)c4ccccc4)c4ccccc4)C(C)=C1C3(C)C)[C@]1(OC(C)=O)CO[C@@H]1C[C@@H]2O [Paclitaxel, paclitaxel]",Potentiating activity MEL-2,[1],(3) (Moderate: 0.5 < CI < 0.8 to IC50)
same,Potentiating activity GL-261,[2],(2) (High: CI < 0.5 to IC50)
same,Potentiating activity U-251,[3],(1) (Very High: potentiating or additive activity to IC20 and CI < 0.6 to IC50)
same,Potentiating activity B16,[4],(1) (Very High: potentiating or additive activity to IC20 and CI < 0.6 to IC50)
same,Potentiating activity Panc 05.04,[5],Potentiating > IC80
same,CTW (estimated weight),[6]; paclitaxel 10 mg/kg,568 ± 155 mg
same,T/C (estimated weight),[6]; paclitaxel 10 mg/kg,81%
same,T/C (real weight),[6]; paclitaxel 10 mg/kg,87%
same,TGI (estimated weight),[6]; paclitaxel 10 mg/kg,19%
same,TGI (real weight),[6]; paclitaxel 10 mg/kg,13%
same,Tumor weight (real weight),[6]; paclitaxel 10 mg/kg,410 ± 90 mg
same,CTW (estimated weight),[6]; paclitaxel 20 mg/kg,510 ± 274 mg
same,T/C (estimated weight),[6]; paclitaxel 20 mg/kg,73%
same,T/C (real weight),[6]; paclitaxel 20 mg/kg,91%
same,TGI (estimated weight),[6]; paclitaxel 20 mg/kg,27%
same,TGI (real weight),[6]; paclitaxel 20 mg/kg,9%
same,Tumor weight (real weight),[6]; paclitaxel 20 mg/kg,420 ± 350 mg
same,CTW (estimated weight),[6]; paclitaxel 30 mg/kg,"446 ± 118^c,d mg"
same,T/C (estimated weight),[6]; paclitaxel 30 mg/kg,64%
same,T/C (real weight),[6]; paclitaxel 30 mg/kg,81%
same,TGI (real weight),[6]; paclitaxel 30 mg/kg,19%
same,Tumor weight (real weight),[6]; paclitaxel 30 mg/kg,380 ± 200 mg
same,effect on tumor growth (in words),[6]; paclitaxel 10 and 20 mg/kg alone,do not inhibit significantly tumor growth
same,Potentiating activity DLD-1,[7],(2) (High: CI below 0.5 at IC50)
same,Potentiating activity A-549,[8],(3) (Moderate: 0.5 < CI < 0.8 at IC50)
same,Potentiating activity MCF-7,[9],(1) (Very High: CI equal or below 1 at IC20 and Cl below 0.6 to IC50)
same,Potentiating activity MDA,[10],(3) (Moderate: 0.5 < CI < 0.8 at IC50)
same,Potentiating activity PA-1,[11],(2) (High: CI < 0.5 to IC50)
"CC(=O)O[C@@]12CO[C@@H]1C[C@H](O)[C@@]1(C)C(=O)[C@H](O)C3=C(C)[C@@H](OC(=O)[C@H](O)[C@@H](NC(=O)OC(C)(C)C)c4ccccc4)C[C@@](O)([C@@H](OC(=O)c4ccccc4)[C@H]21)C3(C)C [Taxotere ™, docetaxel]",Potentiating activity Panc 05.04,[5],Potentiating > IC10
same,CTW,[12]; Taxotere 5 mg/kg,380 ± 116 mg
same,T/C,[12]; Taxotere 5 mg/kg,89%
same,TGI,[12]; Taxotere 5 mg/kg,11%
same,TGI,"[12]; Taxotere 5 mg/kg, listed as Taxotere™",about 11%
same,CTW,[12]; Taxotere 10 mg/kg,346 ± 107 mg
same,T/C,[12]; Taxotere 10 mg/kg,81%
same,TGI,[12]; Taxotere 10 mg/kg,19%
same,CTW,[12]; Taxotere 15 mg/kg,178 ± 112^c mg
same,T/C,[12]; Taxotere 15 mg/kg,42%
same,TGI,[12]; Taxotere 15 mg/kg,58%
same,TGI,"[12]; Taxotere 15 mg/kg, listed as Taxotere™",about 58%
same,loss of weight (day 7) with regard to the initial weight (day 1),[13]; Taxotere 5 mg/kg,about 0.55%
same,Loss of weight > 20% (n = 10),[13]; Taxotere 5 mg/kg,0
same,loss of weight (day 7) with regard to the initial weight (day 1),[13]; Taxotere 10 mg/kg,~3.33%
same,Loss of weight > 20% (n = 10),[13]; Taxotere 10 mg/kg,0
same,loss of weight (day 7) with regard to the initial weight (day 1),[13]; Taxotere 15 mg/kg,about 13%
same,Loss of weight > 20% (n = 10),[13]; Taxotere 15 mg/kg,7
